Reference: paper PMC5794828, “A novel galactolipase from a green microalga Chlorella kessleri: purification, characterization, molecular cloning, and heterologous expression” (Applied Microbiology and Biotechnology, 2018)

What was measured:
[1] = target: T1, ckGL (purified native galactolipase) (Parachlorella kessleri, UniProt A0A2Z5TTR4); assay: free fatty acid release (NEFA C kit, A550), Lineweaver-Burk linear regression; type: biochemical; details: pH 6.5 MES-NaOH, 37 °C, 2 mM CaCl2, 0.3% (w/v) Triton X-100; substrate is an acyl-chain mixture; read-out: apparent Km
T1 construct: gene chGL; native, purified from C. kessleri cells; N-terminus TALREVATKSEVSEA; ~53 kDa; in Triton X-100
T1 sequence (A0A2Z5TTR4 61-535): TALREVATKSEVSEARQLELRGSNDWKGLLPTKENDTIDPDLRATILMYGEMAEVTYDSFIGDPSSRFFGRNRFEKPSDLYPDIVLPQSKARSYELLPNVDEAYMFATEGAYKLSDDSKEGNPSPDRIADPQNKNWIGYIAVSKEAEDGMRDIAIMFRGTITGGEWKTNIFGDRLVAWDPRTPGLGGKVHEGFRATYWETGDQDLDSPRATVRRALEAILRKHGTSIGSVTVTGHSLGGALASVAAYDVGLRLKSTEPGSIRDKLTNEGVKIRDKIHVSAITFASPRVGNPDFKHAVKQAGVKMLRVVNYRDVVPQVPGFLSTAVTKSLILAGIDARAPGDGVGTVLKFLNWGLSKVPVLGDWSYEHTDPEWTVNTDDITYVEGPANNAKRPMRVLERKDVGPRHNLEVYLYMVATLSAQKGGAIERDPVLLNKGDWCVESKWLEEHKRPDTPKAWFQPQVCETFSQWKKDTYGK

rckGL (recombinant ckGL) = target: T2, rckGL (recombinant ckGL) (Parachlorella kessleri, UniProt A0A2Z5TTR4); assay: free fatty acid release (NEFA C kit, A550), nonlinear regression; type: biochemical; details: pH 6.5 MES-NaOH, 37 °C, 2 mM CaCl2, 0.3% (w/v) Triton X-100; substrate is an acyl-chain mixture; read-out: apparent Km
T2 construct: gene chGL; His-tag and trigger factor cut off with factor Xa; ~53 kDa
T2 sequence (A0A2Z5TTR4 61-535): T1 sequence (A0A2Z5TTR4 61-535)

Substance: 1,2-diacyl-3-O-(α-D-galactosyl1-6)-β-D-galactosyl-sn-glycerol [DGDG]
- Km [1]: 1050 ± 480 µM
- Km (rckGL (recombinant ckGL)): 540 ± 110 µM
